We go through one compound from US20130190275A1, “COMBINED THERAPIES OF ANTIPSYCHOTIC DRUGS AND TETRACYCLINES IN THE TREATMENT OF PSYCHIATRIC DISORDERS” (MOR RESEARCH APPLICATIONS LTD., priority 2006, published 2013).

Molecules are shown by their SMILES.

Series [1] relates to patients who experience first psychotic episode. The series is described as follows: CANTAB Intra-extra dimensional set-shifts (IED), adjuvant study. Type of series: in vivo, human. As to conditions: atypical antipsychotic drug+minocycline 200 mg/day vs +placebo; time x group p<0.0001. Here is the method: The study was carried out in patients who experience first psychotic episode, and has followed the patient for a total duration of 6 months. As the study examines Minocycline as an adjuvant drug, the sample includes patients receiving one of the following atypical anti-psychotic drugs: Risperdal, Zyprexa, Geodon, Seroquel, and Leponex. […] In addition, the subjects were assessed by a battery of computerized neuropsychological tests (CANTAB—Cambridge Neuropsychological Test Automated Battery), measuring attention, memory, and planning. Minocycline was given as an add-on therapy. Prior to randomization into minocycline/placebo adjuvant treatment, a preliminary (lead-in phase) screening phase of placebo treatment was undertaken: Placebo was given as an adjuvant to all patients for two weeks. […] Randomization was then carried out by the principal investigator. […] Clinical status was evaluated by the aforementioned scales at the onset of the study, every week for the first 6 weeks, and then once a month for the rest of the study period. Cognitive capabilities were assessed by the neuropsychological battery of tests according to the following schedule: upon initiation of the study (referred to as visit 1 in FIGS. 5-8), 3 months (referred to as visit 2 in FIGS. 5-8), and 6 months (referred to as visit 3 in FIGS. 5-8) after the start of the study. […]

The nature of series [2]: Body weight change 12 weeks after start of treatment, adjuvant study. The following applies: atypical antipsychotic drug+minocycline 200 mg/day. Type of series: in vivo, human. Here is the method:
The study was carried out in patients who experience first psychotic episode, and has followed the patient for a total duration of 6 months. As the study examines Minocycline as an adjuvant drug, the sample includes patients receiving one of the following atypical anti-psychotic drugs: Risperdal, Zyprexa, Geodon, Seroquel, and Leponex. […] Minocycline was given as an add-on therapy. Prior to randomization into minocycline/placebo adjuvant treatment, a preliminary (lead-in phase) screening phase of placebo treatment was undertaken: Placebo was given as an adjuvant to all patients for two weeks. […] Randomization was then carried out by the principal investigator. The raters and evaluators of the subjects participating in the study were blind to the randomization. […] The body weight of the patients was measured at the start of the study and then 12 weeks later (FIG. 12).

As to `CN(C)c1ccc(O)c2c1C[C@H]1C[C@H]3[C@H](N(C)C)C(O)=C(C(N)=O)C(=O)[C@@]3(O)C(O)=C1C2=O` [minocycline], the “IED measures (number of stages completed, total errors adjusted, Pre-ED errors, EDS errors)” value in series [1] is given as “improved significantly more than the placebo group on all the IED measures except for the Pre-ED errors measure”. Moreover, in series [2], the “proportion of patients who gained weight” value is 31% and the “proportion of patients who lost weight” value is 46%.
